Among the data in article PMC3170524 (Physiological research / Academia Scientiarum Bohemoslovaca, 2010) are EC50 values, retold here.

Substitutions are numbered along the chain they refer to.

By EC50 is commonly meant the concentration needed to bring the measured effect to its halfway point.

Experiment in all cases: whole-cell patch clamp, peak current dose-response
Holding throughout (type): cell-based
Background: In patch-clamp work, channel activity is measured electrically.

In test [1] the target is T1, rat P2X4R (Rattus norvegicus, UniProt P51577, C165T).
T1 sequence (P51577 1-388 C165T): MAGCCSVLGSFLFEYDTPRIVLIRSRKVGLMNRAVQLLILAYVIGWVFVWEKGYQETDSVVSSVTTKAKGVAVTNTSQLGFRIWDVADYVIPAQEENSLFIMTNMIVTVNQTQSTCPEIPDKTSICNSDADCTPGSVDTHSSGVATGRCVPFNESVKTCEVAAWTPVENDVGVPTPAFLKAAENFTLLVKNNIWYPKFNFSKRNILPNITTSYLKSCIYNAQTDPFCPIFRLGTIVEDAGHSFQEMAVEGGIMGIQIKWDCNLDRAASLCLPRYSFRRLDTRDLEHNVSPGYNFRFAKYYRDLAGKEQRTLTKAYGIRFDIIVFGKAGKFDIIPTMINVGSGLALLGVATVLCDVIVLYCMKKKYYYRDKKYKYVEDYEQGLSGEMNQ

In test [2] the target is T2, rat P2X4R (Rattus norvegicus, UniProt P51577, C165A).
T2 sequence (P51577 1-388 C165A): T1 sequence (P51577 1-388 C165T) with T165A

For test [3], the target named is T3, rat P2X4R (Rattus norvegicus, UniProt P51577).
T3 sequence (P51577 1-388): T1 sequence (P51577 1-388 C165T) with T165C

In test [4] the target is T4, rat P2X4R (Rattus norvegicus, UniProt P51577, C132T).
T4 sequence (P51577 1-388 C132T): T1 sequence (P51577 1-388 C165T) with C132T, T165C

Test [5] has as its target T5, rat P2X4R (Rattus norvegicus, UniProt P51577, C261A).
T5 sequence (P51577 1-388 C261A): T1 sequence (P51577 1-388 C165T) with T165C, C261A

Test [6] has as its target T6, rat P2X4R (Rattus norvegicus, UniProt P51577, C132A).
T6 sequence (P51577 1-388 C132A): T1 sequence (P51577 1-388 C165T) with C132A, T165C

Test [7] has as its target T7, rat P2X4R (Rattus norvegicus, UniProt P51577, C132T/C159T).
T7 sequence (P51577 1-388 C132T/C159T): T1 sequence (P51577 1-388 C165T) with C132T, C159T, T165C

Turning to `Nc1ncnc2c1ncn2[C@@H]1O[C@H](COP(=O)(O)OP(=O)(O)OP(=O)(O)O)[C@@H](O)[C@H]1O` [ATP], the EC50 on rat P2X4R [1] is 45 ± 3.8 µM; on rat P2X4R [2] it was 42 ± 8.9 µM; at rat P2X4R [3] it was 4.6 ± 0.5 µM; on rat P2X4R [4], 8.2 ± 2.1 µM; at rat P2X4R [5], 5.5 ± 1.7 µM; on rat P2X4R [6], 14 ± 4.1 µM. The molecule also showed an EC50 on rat P2X4R [7] of 5.3 ± 0.8 µM.
